# Results from PubChem BioAssay AID210 (DTP/NCI, 2004).
# Several values for one entry are separate records, joined by “and”; a condition that tells them apart may be missing. Equal entries are not always repeated. Toxic doses and inconclusive results are not listed.
# Test system: CD2F1 mice, ip Colon 26 adenocarcinoma, median survival T/C
# Assay: NCI In Vivo Anticancer Drug Screen. Data for tumor model Colon 26 Adenocarcinoma (intraperitoneal) in CD2F1 (CDF1) mice
# Conditions: endpoint: median survival time, higher = longer survival
# Procedure: The antitumor activity of compounds was measured in mice bearing transplantable tumors. Survival or tumor size were measured and the results are expressed as the measurement made in the treated group (T) divided by the measurement made in the vehicle treated control group (C). The tumor model used in this assay is Colon 26 Adenocarcinoma (intraperitoneal) in CD2F1 (CDF1) mice
# [1] = dose: 25.0 mg/kg/injection, schedule: Q04DX003 (ip), vehicle: Klucel (hydroxypropylcellulose) (HPC)
# [2] = dose: 50.0 mg/kg/injection, schedule: Q04DX003 (ip), vehicle: Klucel (hydroxypropylcellulose) (HPC)
# [3] = dose: 100.0 mg/kg/injection, schedule: Q04DX003 (ip), vehicle: Klucel (hydroxypropylcellulose) (HPC)
# [4] = dose: 200.0 mg/kg/injection, schedule: Q04DX003 (ip), vehicle: Klucel (hydroxypropylcellulose) (HPC)
# [5] = dose: 400.0 mg/kg/injection, schedule: Q04DX003 (ip), vehicle: Klucel (hydroxypropylcellulose) (HPC)
structure (smiles),measurement,setting,value
CCCCCC(=O)O[C@]1(C(C)=O)CC[C@H]2[C@@H]3CCC4=CC(=O)CC[C@]4(C)[C@H]3CC[C@@]21C,T/C,[1],101 % of control
same,T/C,[2],106 % of control
same,T/C,[3],100 % of control
same,T/C,[4],106 % of control
same,T/C,[5],103 % of control
S=P(N1CC1)(N1CC1)N1CC1,T/C,"dose: 1.5 mg/kg/injection, schedule: Q04DX003 (ip), vehicle: saline",106 % of control
same,T/C,"dose: 3.0 mg/kg/injection, schedule: Q04DX003 (ip), vehicle: saline",115 % of control
same,T/C,"dose: 12.0 mg/kg/injection, schedule: Q04DX003 (ip), vehicle: saline",153 % of control
CCOC(=O)c1c[nH]c2oc(/C=N/N3CC(CN4CCOCC4)OC3=O)cc2c1=O (stereo unspecified),T/C,"dose: 12.5 mg/kg/injection, schedule: Q04DX003 (ip), vehicle: suspension in saline",97 % of control
same,T/C,"dose: 25.0 mg/kg/injection, schedule: Q04DX003 (ip), vehicle: suspension in saline",90 % of control
same,T/C,"dose: 50.0 mg/kg/injection, schedule: Q04DX003 (ip), vehicle: suspension in saline",96 % of control
same,T/C,"dose: 100.0 mg/kg/injection, schedule: Q04DX003 (ip), vehicle: suspension in saline",90 % of control
same,T/C,"dose: 200.0 mg/kg/injection, schedule: Q04DX003 (ip), vehicle: suspension in saline",101 % of control
same,T/C,"dose: 400.0 mg/kg/injection, schedule: Q04DX003 (ip), vehicle: suspension in saline",101 % of control
C=C(C)[C@]12CC(C)C34OC(/C=C\C=C\CCCCCCCCC)(O[C@@H]1[C@@H]3[C@@H]1O[C@]1(CO)[C@@H](O)[C@]1(O)C(=O)C(C)=C[C@@H]41)O2 (stereo partly specified),T/C,"dose: 0.18 mg/kg/injection, schedule: Q04DX003 (ip), vehicle: distilled water + alcohol",102 % of control
same,T/C,"dose: 0.37 mg/kg/injection, schedule: Q04DX003 (ip), vehicle: distilled water + alcohol",105 % of control
same,T/C,"dose: 0.75 mg/kg/injection, schedule: Q04DX003 (ip), vehicle: distilled water + alcohol",114 % of control
COc1cccc2c1C(=O)c1c(O)c3c(c(O)c1C2=O)C[C@@](O)(/C(C)=N\O)C[C@@H]3OC1CC(N)C(O)C(C)O1 (stereo partly specified),T/C,"dose: 10.0 mg/kg/injection, schedule: Q07DX002 (ip), vehicle: saline",105 % of control
same,T/C,"dose: 15.0 mg/kg/injection, schedule: Q07DX002 (ip), vehicle: saline",110 % of control
same,T/C,"dose: 23.0 mg/kg/injection, schedule: Q07DX002 (ip), vehicle: saline",115 % of control
same,T/C,"dose: 35.0 mg/kg/injection, schedule: Q07DX002 (ip), vehicle: saline",119 % of control
CC[C@H](CC[C@@H](C)[C@H]1CC[C@H]2[C@@H]3CC=C4C[C@@H](OC(C)=O)CC[C@]4(C)[C@H]3CC[C@]12C)C(C)C,T/C,"dose: 25.0 mg/kg/injection, schedule: Q04DX002 (ip), vehicle: Klucel (hydroxypropylcellulose) (HPC)",88 % of control
same,T/C,"dose: 50.0 mg/kg/injection, schedule: Q04DX002 (ip), vehicle: Klucel (hydroxypropylcellulose) (HPC)",92 % of control
same,T/C,"dose: 100.0 mg/kg/injection, schedule: Q04DX002 (ip), vehicle: Klucel (hydroxypropylcellulose) (HPC)",102 % of control
same,T/C,"dose: 200.0 mg/kg/injection, schedule: Q04DX002 (ip), vehicle: Klucel (hydroxypropylcellulose) (HPC)",90 % of control
same,T/C,"dose: 400.0 mg/kg/injection, schedule: Q04DX002 (ip), vehicle: Klucel (hydroxypropylcellulose) (HPC)",97 % of control
Cc1ncc([N+](=O)[O-])n1CCO,T/C,"dose: 37.5 mg/kg/injection, schedule: Q04DX003 (ip), vehicle: Klucel (hydroxypropylcellulose) (HPC)",114 % of control
same,T/C,"dose: 75.0 mg/kg/injection, schedule: Q04DX003 (ip), vehicle: Klucel (hydroxypropylcellulose) (HPC)",118 % of control
same,T/C,"dose: 150.0 mg/kg/injection, schedule: Q04DX003 (ip), vehicle: Klucel (hydroxypropylcellulose) (HPC)",106 % of control
same,T/C,"dose: 300.0 mg/kg/injection, schedule: Q04DX003 (ip), vehicle: Klucel (hydroxypropylcellulose) (HPC)",109 % of control
same,T/C,"dose: 600.0 mg/kg/injection, schedule: Q04DX003 (ip), vehicle: Klucel (hydroxypropylcellulose) (HPC)",108 % of control
O=C1c2ccccc2C(=O)c2c(NCCNCCNCCO)ccc(NCCNCCNCCO)c21,T/C,"dose: 8.0 mg/kg/injection, schedule: Q01DX009 (ip), vehicle: acid diluted with saline",102 % of control
same,T/C,"dose: 16.0 mg/kg/injection, schedule: Q01DX009 (ip), vehicle: acid diluted with saline",97 % of control
same,T/C,"dose: 32.0 mg/kg/injection, schedule: Q01DX009 (ip), vehicle: acid diluted with saline",107 % of control
same,T/C,"dose: 64.0 mg/kg/injection, schedule: Q01DX009 (ip), vehicle: acid diluted with saline",103 % of control
same,T/C,"dose: 128.0 mg/kg/injection, schedule: Q01DX009 (ip), vehicle: acid diluted with saline",87 % of control
COc1cccc2c1C(=N)c1c(O)c3c(c(O)c1C2=O)C[C@@](O)(C(C)=O)C[C@@H]3OC1CC(N)C(O)C(C)O1 (stereo partly specified),T/C,"dose: 3.46 mg/kg/injection, schedule: Q04DX003 (ip), vehicle: water",119 % of control
same,T/C,"dose: 5.76 mg/kg/injection, schedule: Q04DX003 (ip), vehicle: water",119 % of control
same,T/C,"dose: 9.6 mg/kg/injection, schedule: Q04DX003 (ip), vehicle: water",94 % of control
ClCCCCCCCCCCc1ccccc1,T/C,"dose: 12.5 mg/kg/injection, schedule: Q04DX003 (ip), vehicle: Klucel (hydroxypropylcellulose) (HPC)",102 % of control
same,T/C,[1],106 % of control
same,T/C,[2],100 % of control
same,T/C,[3],100 % of control
same,T/C,[4],106 % of control
same,T/C,[5],114 % of control
O=C(N/N=C\c1cc(Br)cc(Br)c1O)N/N=C/c1cc(Br)cc(Br)c1O,T/C,"dose: 25.0 mg/kg/injection, schedule: Q04DX003 (ip), vehicle: saline with Tween-80",118 % of control
same,T/C,"dose: 50.0 mg/kg/injection, schedule: Q04DX003 (ip), vehicle: saline with Tween-80",102 % of control
same,T/C,"dose: 100.0 mg/kg/injection, schedule: Q04DX003 (ip), vehicle: saline with Tween-80",102 % of control
same,T/C,"dose: 200.0 mg/kg/injection, schedule: Q04DX003 (ip), vehicle: saline with Tween-80",123 % of control
O=c1[nH]c(=O)n(C2CC(O)C(CO)O2)cc1F (stereo unspecified),T/C,"dose: 80.0 mg/kg/injection, schedule: Q07DX003 (ip), vehicle: saline",155 % of control
same,T/C,"dose: 120.0 mg/kg/injection, schedule: Q07DX003 (ip), vehicle: saline",161 % of control and 171 % of control
same,T/C,"dose: 190.0 mg/kg/injection, schedule: Q07DX003 (ip), vehicle: saline",150 % of control and 167 % of control
same,T/C,"dose: 280.0 mg/kg/injection, schedule: Q07DX003 (ip), vehicle: saline",167 % of control and 169 % of control
CCCCNC(C)[C@]1(O)Cc2c(O)c3c(c(O)c2[C@@H](OC2CC(N)C(O)C(C)O2)C1)C(=O)c1c(OC)cccc1C3=O (stereo partly specified),T/C,"dose: 23.0 mg/kg/injection, schedule: Q07DX002 (iv), vehicle: saline",110 % of control
same,T/C,"dose: 35.0 mg/kg/injection, schedule: Q07DX002 (iv), vehicle: saline",122 % of control
same,T/C,"dose: 54.0 mg/kg/injection, schedule: Q07DX002 (iv), vehicle: saline",110 % of control
same,T/C,"dose: 84.0 mg/kg/injection, schedule: Q07DX002 (iv), vehicle: saline",113 % of control
O=P1(N(CCCl)CCCl)NCCCO1 (stereo unspecified),T/C,"dose: 50.0 mg/kg/injection, schedule: Q03DX002 (ip), vehicle: saline",106 % of control
same,T/C,"dose: 51.0 mg/kg/injection, schedule: Q07DX003 (ip), vehicle: saline",119 % of control
same,T/C,"dose: 100.0 mg/kg/injection, schedule: Q03DX002 (ip), vehicle: saline",117 % of control
same,T/C,"dose: 105.0 mg/kg/injection, schedule: Q07DX003 (ip), vehicle: saline",154 % of control
same,T/C,"dose: 150.0 mg/kg/injection, schedule: Q07DX003 (ip), vehicle: saline",165 % of control
CC1(CO)C(O)CCC2(C)C1C(O)CC1CC3CC12CCC3(O)CO (stereo unspecified),T/C,"dose: 12.5 mg/kg/injection, schedule: Q04DX002 (ip), vehicle: distilled water + Tween-80",120 % of control
same,T/C,"dose: 50.0 mg/kg/injection, schedule: Q04DX002 (ip), vehicle: distilled water + Tween-80",98 % of control
same,T/C,"dose: 100.0 mg/kg/injection, schedule: Q04DX002 (ip), vehicle: distilled water + Tween-80",110 % of control
same,T/C,"dose: 200.0 mg/kg/injection, schedule: Q04DX002 (ip), vehicle: distilled water + Tween-80",103 % of control
CC(C)NC(=O)OCc1c(COC(=O)NC(C)C)c(-c2ccc(Cl)c(Cl)c2)n2c1CCC2,T/C,"dose: 2.5 mg/kg/injection, schedule: Q01DX009 (ip), vehicle: distilled water + Tween-80",173 % of control
same,T/C,"dose: 5.0 mg/kg/injection, schedule: Q01DX009 (ip), vehicle: distilled water + Tween-80",162 % of control
same,T/C,"dose: 10.0 mg/kg/injection, schedule: Q01DX009 (ip), vehicle: distilled water + Tween-80",232 % of control
same,T/C,"dose: 20.0 mg/kg/injection, schedule: Q01DX009 (ip), vehicle: distilled water + Tween-80",289 % of control
same,T/C,"dose: 40.0 mg/kg/injection, schedule: Q01DX009 (ip), vehicle: distilled water + Tween-80",163 % of control
